Results reported in patent US9346818B2 (priority 2012, dated 2016).
Where a name gives a salt, the structure may show the parent alone. Read-outs that look alike come from different tables or passages of the source.

Columns and labels:
[1] = test system: learning and memory disorder of mice induced by scopolamine; assay: Morris water maze test, senile dementia mice model induced by scopolamine; assay type: in vivo; conditions: for effect on learning and memory disorder of mice induced by scopolamine: Morris water maze, in comparison with model group / donepezil hydrochloride group; for latent period day 1 / latent period day 2 / latent period day 3 / latent period day 4 / latent period day 5 / times of crossing platform: scopolamine 1 mg/kg
acetylcholinesterase = acetylcholinesterase (Homo sapiens (Human), UniProt P22303); assay: biochemical; assay type: biochemical; conditions: for potency on acetylcholinesterase compared with positive control drug donepezil hydrochloride: enzymology level; for IC50: read-out: IC50 (nM), inhibition activity on acetylcholinesterase
malonaldehyde (MDA) = assay: Biochemical indicators of brain tissues (MDA assay) in scopolamine mice; assay type: in vivo; conditions: 5 mg/kg; for MDA(nmol/mgprot): brain tissue homogenate
Protocol: After the behavior test was complete, the mice were sacrificed, brain tissues were collected (operated on an ice plate) and prepared into 10% of tissue homogenate with pre-cooled physiological saline, centrifuged (3000 rpm, 10 min), and the supernatant was subjected to malonaldehyde (MDA) assay following the kits.

[2] = test system: learning and memory disorder induced by intracerebroventricular injection of Aβ1-42; assay: Morris water maze test, rats with intracerebroventricular injection of Aβ1-42; assay type: in vivo; conditions: Aβ1-42 rats
Protocol: The model of learning and memory disorder induced after intracerebroventricular injection of Aβ1-42 is the most common animal model for evaluating whether a compound has the effect of improving the learning and memory. […] Morris water maze test and the model of learning and memory disorder induced by intracerebroventricular injection of Aβ1-42 were employed in the present research, and the improvement effects of I-33 on learning and memory of rats at various concentration (0.7 mg/Kg, 3.5 mg/Kg, and 7 mg/Kg) were evaluated.
SD, male (220±20 g), the animals were fed in light: dark cycle (12 h/12 h) in a cleaning level of animal room, ad lib. The tests were performed after 3 days acclimation in the animal room. Aβ1-42 was formulated to 2 μg/μl according to the instruction of specification.
(1) Normal group: intracerebroventricular injection of physiological saline
(2) Model group with intracerebroventricular injection of Aβ1-42: intracerebroventricular injection of Aβ1-42
(4) I-33 (low concentration group): I-33 (0.7 mg/Kg)+intracerebroventricular injection of Aβ1-42
(5) I-33 (medium concentration group): I-33 (3.5 mg/Kg)+intracerebroventricular injection of Aβ1-42
(6) I-33 (high concentration group): I-33 (7 mg/Kg)+intracerebroventricular injection of Aβ1-42
Each rat in normal control group received intracerebroventricular injection of 5 μl of physiological saline, each rat in the other groups received intracerebroventricular injection of 5 μl of Aβ1-42. After the operation, the rats received the following tests after 1 week recovery period. […] The drugs were administered for 8 days, the training for water maze test was started on the 5th day, and the water maze test was formally started on the 9th day.

[3] = DPH 3 mg/Kg, I-33 all dosages tested

Sequence of acetylcholinesterase (P22303 32-614, species assumed): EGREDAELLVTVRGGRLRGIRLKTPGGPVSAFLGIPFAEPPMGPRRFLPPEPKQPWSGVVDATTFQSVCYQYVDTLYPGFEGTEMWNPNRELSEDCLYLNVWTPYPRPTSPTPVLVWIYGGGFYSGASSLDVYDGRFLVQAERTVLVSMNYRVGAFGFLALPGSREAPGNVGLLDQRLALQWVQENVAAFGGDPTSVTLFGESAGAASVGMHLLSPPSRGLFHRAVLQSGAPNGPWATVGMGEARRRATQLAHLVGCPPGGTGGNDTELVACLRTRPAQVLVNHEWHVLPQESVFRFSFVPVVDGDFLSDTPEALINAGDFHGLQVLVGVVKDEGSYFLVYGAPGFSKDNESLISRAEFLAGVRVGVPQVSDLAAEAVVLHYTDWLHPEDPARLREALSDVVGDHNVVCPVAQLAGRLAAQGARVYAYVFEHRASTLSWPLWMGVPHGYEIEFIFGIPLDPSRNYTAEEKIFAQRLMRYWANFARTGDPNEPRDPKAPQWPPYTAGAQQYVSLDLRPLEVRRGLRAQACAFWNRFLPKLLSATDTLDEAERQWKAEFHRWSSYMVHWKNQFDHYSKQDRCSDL

Structure (SMILES)	effect on learning and memory disorder of mice induced by scopolamine [1]	latent period day 1 ([1]; Table 2, 5 mg/kg intragastric)	latent period day 2 ([1]; Table 2, 5 mg/kg intragastric)	latent period day 3 ([1]; Table 2, 5 mg/kg intragastric)	latent period day 4 ([1]; Table 2, 5 mg/kg intragastric)	latent period day 5 ([1]; Table 2, 5 mg/kg intragastric)	times of crossing platform ([1]; Table 2, 5 mg/kg intragastric)	potency on acetylcholinesterase compared with positive control drug donepezil hydrochloride (acetylcholinesterase; in vitro)	IC50 (acetylcholinesterase; modified Ellman method)	MDA(nmol/mgprot) (malonaldehyde (MDA))	latent period day 1 ([1]; Table 4, 5 mg/kg intragastric)	latent period day 2 ([1]; Table 4, 5 mg/kg intragastric)	latent period day 3 ([1]; Table 4, 5 mg/kg intragastric)	latent period day 4 ([1]; Table 4, 5 mg/kg intragastric)	latent period day 5 ([1]; Table 4, 5 mg/kg intragastric)	times of crossing platform ([1]; Table 4, 5 mg/kg intragastric)	also measured
O=C1c2cc3c(cc2C2(CC2)N1CCC1CCN(Cc2ccccc2F)CC1)OCO3 [Compound I-18, 6-[2-[1-[(2-fluorophenyl)methyl]-4-piperidyl]ethyl]spiro[[1,3]dioxolo[4,5-f]isoindole-7,1′-cyclopropane]-5-one]	can improve the learning and memory disorder of the animals induced by scopolamine	60 ± 0 s	60 ± 0 s	53.1 ± 10.4 s	56.9 ± 8.2 s	56.8 ± 8.6 s	0.5 ± 0.6	slightly lower potency than the positive control drug	154 nM	–	–	–	–	–	–	–	latent period day 1 ([1]; Table 3, 5 mg/kg intragastric): 55.0 ± 10.3 s; latent period day 2 ([1]; Table 3, 5 mg/kg intragastric): 55.9 ± 9.0 s; latent period day 3 ([1]; Table 3, 5 mg/kg intragastric): 60 ± 0 s; latent period day 4 ([1]; Table 3, 5 mg/kg intragastric): 51.8 ± 15.6 s; latent period day 5 ([1]; Table 3, 5 mg/kg intragastric): 35.6 ± 15.4 s; times of crossing platform ([1]; Table 3, 5 mg/kg intragastric): 1.5 ± 1.7; latent period day 1 ([1]; Table 3, 10 mg/kg intragastric): 56.0 ± 9.9 s; latent period day 2 ([1]; Table 3, 10 mg/kg intragastric): 52.4 ± 12.4 s; latent period day 3 ([1]; Table 3, 10 mg/kg intragastric): 60 ± 0 s; latent period day 4 ([1]; Table 3, 10 mg/kg intragastric): 48.8 ± 15.4 s; latent period day 5 ([1]; Table 3, 10 mg/kg intragastric): 49.2 ± 15.9 s; times of crossing platform ([1]; Table 3, 10 mg/kg intragastric): 1.5 ± 1.2
O=C1c2cc3c(cc2C2(CC2)N1CCC1CCN(Cc2cccc(F)c2)CC1)OCO3 [Compound I-19, 6-[2-[1-[(3-fluorophenyl)methyl]-4-piperidyl]ethyl]spiro[[1,3]dioxolo[4,5-f]isoindole-7,1′-cyclopropane]-5-one]	can improve the learning and memory disorder of the animals induced by scopolamine	60 ± 0 s	60 ± 0 s	55.2 ± 11.8 s	57.3 ± 10.4 s	53.9 ± 12.4 s	0.8 ± 1.4	even lower	376 nM	–	–	–	–	–	–	–	–
Cc1ccccc1CN1CCC(CCN2C(=O)c3cc4c(cc3C23CC3)OCO4)CC1 [Compound I-23, 6-[2-[1-(o-tolylmethyl)-4-piperidyl]ethyl]spiro[[1,3]dioxolo[4,5-f]isoindole-7,1′-cyclopropane]-5-one]	–	–	–	–	–	–	–	even lower	959 nM	6.53 ± 2.3 nmol/mgprot	57.8 ± 5.4 s	57.7 ± 7.1 s	55.5 ± 8.8 s	43.9 ± 14.1 s	51.8 ± 10.9 s	1.5 ± 1.5	–
O=C1c2cc3c(cc2C2(CC2)N1CCC1CCN(Cc2ccccn2)CC1)OCO3 [Compound I-29, 6-[2-[1-(2-pyridylmethyl)-4-piperidyl]ethyl]spiro[[1,3]dioxolo[4,5-f]isoindole-7,1′-cyclopropane]-5-one]	stronger effects of improving learning and memory	–	–	–	–	–	–	even lower	–	6.66 ± 1.75 nmol/mgprot	59.3 ± 2.7 s	54.6 ± 12.5 s	48.0 ± 15.8 s	46.0 ± 16.3 s	40.4 ± 21.6 s	1.5 ± 1.4	content of MDA in brains / antioxidation effect (malonaldehyde (MDA)): significant antioxidation effect; inhibition activity on acetylcholinesterase in vitro relative to donepezil hydrochloride (acetylcholinesterase; in vitro): about 10%; IC50 (acetylcholinesterase): 903 nM
COc1cc2c(cc1OC)C(=O)C(CC1CCN(Cc3ccccc3)CC1)C2 (stereo not shown) [DPH, donepezil hydrochloride, reference compound]	–	–	–	–	–	–	–	–	–	–	–	–	–	–	–	–	The period of reaching the platform for the first time (latent period) ([2]; 3 mg/Kg intragastric, 8 days): 23.94 ± 4.84; times of crossing platform ([2]; 3 mg/Kg intragastric, 8 days): 3.22 ± 0.55; effect on period required for reaching the platform for the first time (latent period) [2, 3]: significantly shorten the period required for reaching the platform for the first time; effect on times of crossing the platform [2, 3]: significantly increases the times of crossing the platform
